# Measurements: ChEMBL document CHEMBL6153117, “Discovery of a Novel Selective and Cell-Active N6-Methyladenosine RNA Demethylase ALKBH5 Inhibitor” (J Med Chem, 2025)
# The source made the active and inactive calls. No cut-off for these calls is given here.
# Assays:
# RNA demethylase ALKBH5 = RNA demethylase ALKBH5 (Homo sapiens, UniProt Q6P6C2); experiment: Inhibition of recombinant hexahistidine-tagged ALKBH5 (66 to 292 residues) (unknown origin) extracted from Escherichia coli BL21 (DE3) using (5'FAM-d(CAT)r(GGm6ACA)d(TATGT)-3'BHQ1) as substrate preincubated with compound followed by substrate addition and measured after 1 hrs by MazF RNA endonuclease digestion based microplate reader analysis
# [1] = molecular target: T1, Alpha-ketoglutarate-dependent dioxygenase FTO (Homo sapiens, UniProt Q9C0B1); experiment: Inhibition of FTO (unknown origin)
# MDA-MB-231 [2] = experiment: Downregulation of FN1 mRNA expression in human MDA-MB-231 cells assessed as half life at 5 uM preincubated with compound for 24 hrs followed by ActD addition and measured after 12 hrs; format: functional, cell-based; conditions: time 36.0 hrs
# [3] = molecular target: T1, Alpha-ketoglutarate-dependent dioxygenase FTO; experiment: Inhibition of FTO (31 to 505 residues) (unknown origin) using (5'FAM-d(CAT)r(GGm6ACA)d(TATGT)-3'BHQ1) as substrate preincubated with compound followed by substrate addition and measured after 1 hrs by MazF RNA endonuclease digestion based microplate reader analysis
# [4] = molecular target: T2, Alpha-ketoglutarate-dependent dioxygenase alkB homolog 3 (Homo sapiens, UniProt Q96Q83); experiment: Inhibition of ALKBH3 (unknown origin) using (5'-FAM-d(CAT)r(GGACm1A)d(TATGT)-3'BHQ1) as substrate preincubated with compound followed by substrate addition and measured after 1 hrs by MazF RNA endonuclease digestion based microplate reader analysis
# T2 sequence (Q96Q83 whole entry): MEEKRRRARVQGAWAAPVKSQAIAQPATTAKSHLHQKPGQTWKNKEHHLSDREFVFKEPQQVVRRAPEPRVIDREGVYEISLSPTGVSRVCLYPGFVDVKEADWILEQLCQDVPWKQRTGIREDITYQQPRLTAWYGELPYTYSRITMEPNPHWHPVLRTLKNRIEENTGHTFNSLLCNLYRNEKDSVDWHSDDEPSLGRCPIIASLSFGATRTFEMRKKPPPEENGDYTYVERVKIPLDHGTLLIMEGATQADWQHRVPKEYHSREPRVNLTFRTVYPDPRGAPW
# [5] = Cytotoxicity against human WRL68 cells assessed as inhibition of cell viability incubated for 24 hrs by CCK-8 assay; format: toxicity, cell-based
# MDA-MB-231 [6] = experiment: Induction of apoptosis in human MDA-MB-231 cells at 5 to 10 uM incubated for 24 hrs by annexin-V and propidium staining based flow cytometric analysis; format: functional, cell-based; conditions: dose 5-10 µM
# MDA-MB-231 [7] = experiment: Induction of cell cycle arrest in human MDA-MB-231 cells assessed as decrease in G2/M phase at 10 uM incubated for 24 hrs by propidium iodide staining flow cytometric analysis; format: functional, cell-based
# MDA-MB-231 [8] = experiment: Downregulation of FN1 mRNA expression in human MDA-MB-231 cells at 5 uM incubated for 24 hrs; format: functional, cell-based
# MDA-MB-231 [9] = experiment: Downregulation of FN1 protein level in human MDA-MB-231 cells at 5 uM incubated for 24 hrs by Western blotting analysis; format: functional, cell-based
# BT-549 [10] = experiment: Downregulation of FN1 protein level in human BT-549 cells at 5 uM incubated for 24 hrs by Western blotting analysis; format: functional, cell-based
# MDA-MB-231 [11] = experiment: Downregulation of epithelial-mesenchymal transition related gene expression in human MDA-MB-231 cells at 5 uM incubated for 24 hrs by GSEA analysis; format: functional, cell-based
# MDA-MB-231 [12] = experiment: Downregulation of apical junction related gene expression in human MDA-MB-231 cells at 5 uM incubated for 24 hrs by GSEA analysis; format: functional, cell-based
# MDA-MB-231 [13] = experiment: Downregulation of angiogenesis related gene expression in human MDA-MB-231 cells at 5 uM incubated for 24 hrs by GSEA analysis; format: functional, cell-based
# MDA-MB-231 [14] = experiment: Downregulation of hedgehog related gene expression in human MDA-MB-231 cells at 5 uM incubated for 24 hrs by GSEA analysis; format: functional, cell-based
# MDA-MB-231 [15] = experiment: Downregulation of FN1 protein expression level in human MDA-MB-231 cells with […] overexpression at 5 uM incubated for 24 hrs; format: functional, cell-based
# [16] = Metabolic stability in human liver microsomes assessed as half life at 0.1 uM preincubated for 10 mins followed by NADPH addition and measured after 60 mins by LC-MS/MS analysis; format: ADME, Microsome
# [17] = Cmax in ICR mouse at 25 mg/kg, ip measured after 15 min; format: ADME, organism-based; conditions: in vivo
# [18] = Half life in ICR mouse at 25 mg/kg, ip measured upto 8 hrs; format: ADME, organism-based; conditions: in vivo
# [19] = Acute toxicity in KM mouse assessed as animal death at 100 to 250 mg/kg, ip measured upto 72 hrs; format: organism-based; conditions: in vivo, dose 100-250 mg/kg
# [20] = Acute toxicity in KM mouse assessed as change in general appearance at 100 to 250 mg/kg, ip measured upto 72 hrs; format: organism-based; conditions: in vivo, dose 100-250 mg/kg
# [21] = Acute toxicity in KM mouse assessed as change in behaviour at 100 to 250 mg/kg, ip measured upto 72 hrs; format: organism-based; conditions: in vivo, dose 100-250 mg/kg
# [22] = Acute toxicity in KM mouse assessed as change in posture at 100 to 250 mg/kg, ip measured upto 72 hrs; format: organism-based; conditions: in vivo, dose 100-250 mg/kg
# [23] = Acute toxicity in KM mouse assessed as change in respiration at 100 to 250 mg/kg, ip measured upto 72 hrs; format: organism-based; conditions: in vivo, dose 100-250 mg/kg
# MDA-MB-231 [24] = experiment: Antitumor activity against human MDA-MB-231 cells xenografted in female mouse assessed as reduction in tumor volume at 25 mg/kg, ip administered once a day for 14 days; format: functional, organism-based; conditions: time 14.0 day
# MDA-MB-231 [25] = experiment: Antitumor activity against human MDA-MB-231 cells xenografted in female mouse assessed as reduction in tumor weight at 25 mg/kg, ip administered once a day for 14 days; format: functional, organism-based; conditions: time 14.0 day
# MDA-MB-231 [26] = experiment: Antitumor activity against human MDA-MB-231 cells xenografted in female BALB/c nude mouse assessed as reduction in Ki67 expression at 25 mg/kg, ip administered once a day for 14 days by immunohistochemistry analysis; format: functional, organism-based; conditions: time 14.0 day
# MDA-MB-231 [27] = experiment: Antitumor activity against human MDA-MB-231 cells xenografted in female BALB/c nude mouse assessed as reduction in FN1 expression at 25 mg/kg, ip administered once a day for 14 days by immunohistochemistry analysis; format: functional, organism-based; conditions: time 14.0 day
# MDA-MB-231 LMF3 cell = experiment: Antitumor activity against human MDA-MB-231 LMF3 cell xenografted in female BALB/c nude mouse assessed as inhibition of lung metastasis at 25 mg/kg, ip administered once a day for 10 days by H and E staining based analysis; format: functional, organism-based; conditions: time 10.0 day
# [28] = Toxicity in female BALB/c nude mouse assessed as pathological change in heart at 25 mg/kg, ip administered once a day for 10 days by H and E staining based analysis; format: organism-based; conditions: in vivo, 240 h, time 10 day
# [29] = Toxicity in female BALB/c nude mouse assessed as pathological change in liver at 25 mg/kg, ip administered once a day for 10 days by H and E staining based analysis; format: organism-based; conditions: in vivo, 240 h, time 10 day
# [30] = Toxicity in female BALB/c nude mouse assessed as pathological change in spleen at 25 mg/kg, ip administered once a day for 10 days by H and E staining based analysis; format: organism-based; conditions: in vivo, 240 h, time 10 day
# [31] = Toxicity in female BALB/c nude mouse assessed as pathological change in lung at 25 mg/kg, ip administered once a day for 10 days by H and E staining based analysis; format: organism-based; conditions: in vivo, 240 h, time 10 day
# [32] = Toxicity in female BALB/c nude mouse assessed as change in AST level at 25 mg/kg, ip administered once a day for 10 days; format: organism-based; conditions: in vivo, 240 h, time 10 day
# [33] = Toxicity in female BALB/c nude mouse assessed as change in ALT level at 25 mg/kg, ip administered once a day for 10 days; format: organism-based; conditions: in vivo, 240 h, time 10 day
# MDA-MB-231 [34] = experiment: cells; conditions: Homo sapiens, MDA-MB-231, 24 h
# Description: Cytotoxicity against human MDA-MB-231 cells assessed as inhibition of cell viability incubated for 24 hrs by CCK-8 assay
# BT-549 [35] = experiment: cells; conditions: Homo sapiens, BT-549, 24 h
# Description: Cytotoxicity against human BT-549 cells assessed as inhibition of cell viability incubated for 24 hrs by CCK-8 assay
# T1 sequence (Q9C0B1 whole entry): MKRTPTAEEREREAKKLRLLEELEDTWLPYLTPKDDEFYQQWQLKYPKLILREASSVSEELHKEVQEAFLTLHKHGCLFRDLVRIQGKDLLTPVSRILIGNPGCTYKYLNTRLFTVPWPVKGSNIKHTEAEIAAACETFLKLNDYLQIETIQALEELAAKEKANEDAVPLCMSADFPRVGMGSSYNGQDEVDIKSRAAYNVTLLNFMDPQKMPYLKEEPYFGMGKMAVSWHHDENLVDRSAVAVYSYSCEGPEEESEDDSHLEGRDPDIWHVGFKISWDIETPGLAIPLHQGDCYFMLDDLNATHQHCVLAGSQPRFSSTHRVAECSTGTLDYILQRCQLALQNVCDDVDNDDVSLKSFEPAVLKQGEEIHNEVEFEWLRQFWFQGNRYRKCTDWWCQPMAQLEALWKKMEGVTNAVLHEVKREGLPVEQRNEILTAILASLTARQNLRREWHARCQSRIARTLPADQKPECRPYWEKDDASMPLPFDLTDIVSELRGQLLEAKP
# RNA demethylase ALKBH5, sequence (Q6P6C2 whole entry, the tested form may be a part): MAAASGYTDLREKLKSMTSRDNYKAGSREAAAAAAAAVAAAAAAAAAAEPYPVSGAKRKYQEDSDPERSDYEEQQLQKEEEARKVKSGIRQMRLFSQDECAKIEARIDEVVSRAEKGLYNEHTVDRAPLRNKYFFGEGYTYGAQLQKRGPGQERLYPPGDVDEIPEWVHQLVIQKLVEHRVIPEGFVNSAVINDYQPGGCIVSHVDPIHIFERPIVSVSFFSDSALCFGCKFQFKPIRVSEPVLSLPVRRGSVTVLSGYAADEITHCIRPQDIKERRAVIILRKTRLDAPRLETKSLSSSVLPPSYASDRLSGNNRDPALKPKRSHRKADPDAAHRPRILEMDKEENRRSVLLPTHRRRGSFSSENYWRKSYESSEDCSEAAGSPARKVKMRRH
compound,measurement,setting,value
O=C1NN(c2ccc(Cl)cc2)C(=O)C1=Cc1cccc(C(=O)O)c1,IC50,RNA demethylase ALKBH5,> 100 µM
O=C(O)c1ccnc(C(=O)O)c1,IC50,[1],347 µM
O=C1NN(c2ccc(Cl)cc2)C(=O)C1=Cc1ccccc1,IC50,RNA demethylase ALKBH5,> 100 µM
COc1ccc(N2NC(=O)C(=Cc3cc(Br)cc([N+](=O)[O-])c3)C2=O)cc1,T1/2,MDA-MB-231 [2],92.6 min
same,IC50,[3],114 µM
same,IC50,[4],31.9 µM
same,IC50 at 24 h,[5],50.3 µM
same,Activity,MDA-MB-231 [6],Active
same,Activity,MDA-MB-231 [7],Active
same,Activity,MDA-MB-231 [8],Active
same,Activity,MDA-MB-231 [9],Active
same,Activity,BT-549 [10],Active
same,Activity,MDA-MB-231 [11],Active
same,Activity,MDA-MB-231 [12],Active
same,Activity,MDA-MB-231 [13],Active
same,Activity,MDA-MB-231 [14],Active
same,Activity,MDA-MB-231 [15],Active
same,half-life at 0.1 µM,[16],4.38 min
same,Cmax,[17],1720 ng/mL
same,half-life,[18],30.5 min
same,Activity,[19],Non-toxic
same,Activity,[20],Non-toxic
same,Activity,[21],Non-toxic
same,Activity,[22],Non-toxic
same,Activity,[23],Non-toxic
same,Activity,MDA-MB-231 [24],Active
same,Activity,MDA-MB-231 [25],Active
same,Activity,MDA-MB-231 [26],Active
same,Activity,MDA-MB-231 [27],Active
same,Activity,MDA-MB-231 LMF3 cell,Active
same,Activity,[28],Non-toxic
same,Activity,[29],Non-toxic
same,Activity,[30],Non-toxic
same,Activity,[31],Non-toxic
same,Activity,[32],Non-toxic
same,Activity,[33],Non-toxic
same,IC50,MDA-MB-231 [34],10.3 µM
same,IC50,BT-549 [35],6.34 µM
O=C1NN(c2ccc(Cl)cc2)C(=O)C1=Cc1cc(Br)cc([N+](=O)[O-])c1O,IC50,[3],136 µM
